The source of these data is patent publication US9518022B2, “Anti-HIV compounds” (priority 2014, dated 2016).

As usually defined, the CC50 is the concentration giving 50% cytotoxicity.

Structures are written as SMILES.

The first series can be described thus: Cytotoxicity assay (AlamarBlue) in mock infected MT-2 cells. It counts as cell-based. To be noted: human. An outline of the steps:
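MT-2 cells at 2×10^4 cells/well, mock-infected, treated with 3-fold serial compound dilutions for 96 h at 37 °C. AlamarBlue added for 3 h, fluorescence read at 545/590 nm; % inhibition versus solvent control fitted to a 4-parameter logistic to give CC50.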
Compound `COCCOc1ccccc1/C=C/C1NCCc2cc(OCc3ccccc3)c(OC)cc21` (centres unmarked) [DE, 6-(benzyloxy)-7-methoxy-1-[(E)-2-[2-(2-methoxyethoxy)phenyl]ethenyl]-1,2,3,4-tetrahydroisoquinoline] yielded a cytotoxic concentration (CC50) at 96 h of 10 µM.

The compound `CCCCOc1cc(/C=C/C2NCCc3cc(OCc4ccccc4)c(OC)cc32)c(C)cc1OC` (centres unmarked) [BL, 6-(benzyloxy)-1-[(E)-2-(5-butoxy-4-methoxy-2-methylphenyl)ethenyl]-7-methoxy-1,2,3,4-tetrahydroisoquinoline] displayed a 50% cytotoxic concentration (CC50) at 96 h of 1.1 µM.

`COc1ccc(/C=C/C2c3cc(OC)c(OCc4ccccc4)cc3CCN2C(=O)c2cnccn2)cc1OCc1ccccc1` (centres unmarked) [Example B, [6-Benzyloxy-1-[(E)-2-(3-benzyloxy-4-methoxy-phenyl)vinyl]-7-methoxy-3,4-dihydro-1H-isoquinolin-2-yl]-pyrazin-2-yl-methanone] displayed a CC50 at 96 h of 5 µM.

On to `CCCCOc1cc(/C=C/C2NCCc3cc(OCc4ccccc4)c(OC)cc32)ccc1OC` (centres unmarked) [BE, 6-(benzyloxy)-1-[(E)-2-(3-butoxy-4-methoxyphenyl)ethenyl]-7-methoxy-1,2,3,4-tetrahydroisoquinoline], for which it took 3.75 µM to reach half-maximal cytotoxicity (CC50 at 96 h).

The compound `COc1ccc(/C=C/C2NCCc3cc(OCc4ccccc4)c(OC)cc32)cc1CN1CCCCC1` (centres unmarked) [EM, 6-(benzyloxy)-7-methoxy-1-[(E)-2-[4-methoxy-3-(piperidin-1-ylmethyl)phenyl]ethenyl]-1,2,3,4-tetrahydroisoquinoline] registered a CC50 at 96 h of 1.8 µM.

In turn, `COc1cc2c(cc1OCc1ccccc1)CCNC2/C=C/c1cc2ccccc2s1` (centres unmarked) [DU, 1-[(E)-2-(1-benzothiophen-2-yl)ethenyl]-6-(benzyloxy)-7-methoxy-1,2,3,4-tetrahydroisoquinoline] gave a CC50 at 96 h of 16.3 µM.

`COc1ccccc1/C=C/C1NCCc2cc(OCc3ccccc3)c(OC)cc21` (centres unmarked) [DG, 6-(benzyloxy)-7-methoxy-1-[(E)-2-(2-methoxyphenyl)ethenyl]-1,2,3,4-tetrahydroisoquinoline] returned a CC50 at 96 h of 9 µM.

Regarding `COc1cc2c(cc1OCc1ccccc1)CCNC2/C=C/c1ccc(-n2ccnc2C)cc1` (centres unmarked) [DM, 6-(benzyloxy)-7-methoxy-1-[(E)-2-[4-(2-methyl-1H-imidazol-1-yl)phenyl]ethenyl]-1,2,3,4-tetrahydroisoquinoline], the half-maximal cytotoxic concentration (CC50) at 96 h was 21.1 µM.

`CCN1CCN(c2ccc(/C=C/C3NCCc4cc(OCc5ccccc5)c(OC)cc43)cc2)CC1` (centres unmarked) [DO, 6-(benzyloxy)-1-[(E)-2-[4-(4-ethylpiperazin-1-yl)phenyl]ethenyl]-7-methoxy-1,2,3,4-tetrahydroisoquinoline] came in with a half-maximal cytotoxic concentration (CC50) at 96 h of 3.61 µM.

With `COc1cc2c(cc1OCc1ccccc1)CCNC2/C=C/c1cc(OCC(C)(C)C)c(OC)cc1C` (centres unmarked) [BX, 6-(benzyloxy)-1-[(E)-2-[5-(2,2-dimethylpropoxy)-4-methoxy-2-methylphenyl]ethenyl]-7-methoxy-1,2,3,4-tetrahydroisoquinoline], half-maximal cytotoxicity (CC50 at 96 h) was put at 3.4 µM.

In turn, `COc1cc(C)c(/C=C/C2NCCc3cc(OCc4ccccc4)c(OC)cc32)cc1OCCCCN=[N+]=[N-]` (centres unmarked) [CD, 1-[(E)-2-[5-(4-azidobutoxy)-4-methoxy-2-methylphenyl]ethenyl]-6-(benzyloxy)-7-methoxy-1,2,3,4-tetrahydroisoquinoline] gave a CC50 at 96 h of 1.63 µM.

The series is the same for the next values; noted with them: human; mock infected MT-2 cells, 96 hours, AlamarBlue; read-out: CC50.
For `COc1cc(/C=C/C2NCCc3cc(OCc4ccccc4)c(OC)cc32)ccn1` (centres unmarked) [AU, 6-benzyloxy-7-methoxy-1-[(E)-2-(2-methoxy-4-pyridyl)vinyl]-1,2,3,4-tetrahydroisoquinoline], the CC50 at 96 h came to 3.22 µM.

With `COc1cc2c(cc1OCc1ccccc1)CCNC2/C=C/c1ccncc1` (centres unmarked) [AW, 6-(benzyloxy)-7-methoxy-1-[(E)-2-(pyridin-4-yl)ethenyl]-1,2,3,4-tetrahydroisoquinoline], the CC50 at 96 h is 11.4 µM.

As to `COc1cc(OC)c(OC)cc1/C=C/C1NCCc2cc(OCc3ccccc3)c(OC)cc21` (centres unmarked) [AQ, 6-(benzyloxy)-7-methoxy-1-[(E)-2-(2,4,5-trimethoxyphenyl)ethenyl]-1,2,3,4-tetrahydroisoquinoline], the CC50 at 96 h came out at 1.98 µM.
